Experimental data taken from patent publication US20130005699A1, “METHODS AND PRODUCTS FOR TREATMENT OF DISEASES” (DMI ACQUISITION CORP., priority 2009, published 2013).

Tests used:
RhoA = assay: Rho activation assay (GLISA) in retinal endothelial cells; format: cell-based, human
Description: This experiment was performed using a commercially-available Rho activation assay (GLISA) purchased from Cytoskeleton, Denver, Colo., following the manufacturer's protocol. […] Test compounds diluted in HBSS were placed in the incubator to equilibrate before addition to the cells. Then, 150 μl of each test compound was added to the appropriate culture wells, and the plates were incubated in the incubator for an additional 15 minutes. Then, thrombin was added to appropriate wells. After 1 minute, the cells were washed one time with 1.5 ml phosphate buffered saline and were then lysed with 100 μl GLISA lysis buffer supplemented with protease inhibitors. The extracts were scraped, transferred to microcentrifuge tubes and transferred to ice to preserve the active form of RhoA. All extracts were then cleared of debris by spinning at 10,000 rpms for 2 minutes at 4° C. The supernatants were transferred to new tubes and placed back on ice. Aliquots of each extract were removed for the GLISA assay and for protein determinations. All protein concentrations were within 10%, and the extracts were used at the achieved concentrations (equates to 15 μg total protein per well). The GLISA assay was performed using the reagents supplied in the kit.

[1] = test system: human retinal endothelial cells; assay: Actin stress fiber formation, rhodamine-phalloidin staining, TNFα (Example 7); settings: TNFα 50 ng/ml, 30 minutes
[2] = test system: human retinal endothelial cells; assay: Actin stress fiber formation (Example 11), retinal cells
[3] = test system: human renal glomerular microvascular endothelial cells; assay: Actin stress fiber formation (Example 11), glomerular cells
[4] = test system: human retinal endothelial cells; assay: TER of retinal endothelial cell monolayers with danazol, steroid receptor antagonists and hormones (Example 10); settings: for TER at 5 minutes: None 250.30; for TER at 60 minutes: None 251.00; for TER at 30 minutes: None 262.31; for TER at 24 Hours: None 287.09
[5] = test system: human retinal endothelial cells; assay: ECIS resistance (Example 12), retinal cells
[6] = test system: human retinal endothelial cells; assay: TER of retinal endothelial cell monolayers with danazol and steroid receptor antagonists (Example 6); settings: for TER at 30 minutes: None 216.22; for TER at 120 minutes: None 234.23; for TER at 60 minutes: None 249.25; for TER at 24 Hours: None 312.31
VE-Cadherin = assay: VE-cadherin phosphorylation (immunoprecipitation, Pro-Q diamond / SYPRO ruby densitometry); format: cell-based, human; settings: VEGF 50 ng/ml
Description: The plates were immediately treated to lyse the cells as follows. PBS and the lysis buffer (PBS containing 1% Triton X-100 supplemented with phosphatase inhibitor solutions 1 and 2 (Sigma), protease inhibitor (Sigma) and sodium orthovanadate at a final concentration of 2 mM) were cooled to 4° C. The cells were washed two times with 5 ml of the ice cold PBS and then lysed in 500 μl of the ice cold lysis buffer. The resulting protein extracts were transferred to 1.7 ml microcentrifuge tubes, and cell debris was removed by spinning at 4° C. at 10,000 rpm for 10 minutes. Then, 450 μl of the cleared solution was transferred to tubes containing 25 μl of Protein Dynabeads (Invitrogen) coated with 10 μl C19 anti-VE cadherin polyclonal antibody (Santa Cruz Biotechnology) (coating performed following manufacturer's protocol). The extracts and beads were then incubated overnight at 4° C. on an orbital shaker to capture VE cadherin from the extracts. The beads were then washed four times with ice cold lysis buffer. To release the protein from the beads, they were heated for 10 minutes at 75° C. in SDS loading dye containing 20% reducing dye (Invitrogen).
The released proteins were separated in 4-20% polyacrylamide gels (Invitrogen) at 120 volts for 1 hour. To determine phosphorylation and total protein in the gels, Pro-Q diamond (Invitrogen) and SYPRO ruby (Invitrogen) protein staining were sequentially performed following the manufacturer's protocol. The gels were photographed and densitometry performed using a Kodak imaging station.

[7] = test system: human retinal endothelial cells; assay: Actin stress fiber formation, rhodamine-phalloidin staining, VEGF (Example 8); format: cell-based; settings: VEGF 25 ng/ml, 30 minutes
Description: . […] To counter-stain for nuclei, 100 μl of a 3 μM DAPI (4,6-diamidino-2-phenylindole, dilactate (Invitrogen)) solution was added to each well. After 5 minutes, the cells were washed two times with 100 μl PBS.

HUVECs = assay: HUVEC invasion (BioCoat Matrigel Invasion Chambers); format: cell-based, human; settings: 24 hours, 5% FCS; FCS raised 5674 FU±77 to 7143±516; concentration of LY294002 not specified (10 μM and 100 μM tested)
Description: BioCoat Matrigel Invasion Chambers were purchased from BD Biosciences (San Jose, Calif.). Inserts were rehydrated at 37° C. with 500 μl HBSS for 2 hours prior to use in humidified incubator. Trypsinized HUVECs were washed twice with warm EGM-2 containing 0.1% FCS and added to the upper chamber of the invasion insert at 100,000 cells in a total volume of 250 μl. […]. Non-invasive cells were removed from the upper chamber with moistened cotton swabs and then the inserts were washed twice with HBSS. The inserts were then submerged in 10 μM calcein AM prepared in HBSS and incubated for 4 hours. Fluorescence was determined in a microplate reader at 485 nm excitation and 595 nm emission.
All data is presented as representative experiment done in triplicate. Differences between subsets were analyzed using student t-test in Microsoft Excel. P<0.05 was considered statistically significant.

[8] = 10 nM hormone, alone or followed by 0.1 μM Danazol
[9] = S1P 1 μM alone, beginning at 15 minutes, strongest at 3 hours
[10] = 0.1 μM of each additive, background subtracted, divided by 0.33 cm^2
[11] = 15 minutes, ethanol control 1.00
[12] = passage 12 cells, 1.0 μM, no thrombin, Untreated 0.455
[13] = passage 12 cells, 0.1 U/ml Thrombin + 1.0 μM compound
[14] = 10.0 μM LY294002, alone or followed by 0.1 μM Danazol
[15] = passage 8 cells, 0.1 U/ml Thrombin + 10.0 μM compound
[16] = passage 12 cells, 0.1 U/ml Thrombin + 10.0 μM compound

Compound: Thrombin
- Mean OD (active RhoA) (RhoA; passage 8 cells, 0.1 U/ml Thrombin alone, Untreated 0.102): 0.561
- Mean OD (active RhoA) (RhoA; passage 12 cells, 0.1 U/ml Thrombin alone, Untreated 0.455): 1.013

Compound: TNFα
- F-actin staining pattern [1]: strong stress fiber development with intensely staining focal points
- F-actin staining pattern ([2]; TNFα 1 ng/ml alone): stress fibers were seen at all times
- F-actin staining pattern ([3]; TNFα 1 ng/ml alone): stress fibers were seen at all times

Compound: C[C@]12CC[C@@H]3c4ccc(O)cc4CC[C@H]3[C@@H]1CC[C@@H]2O [Estradiol, estradiol]
- TER at 5 minutes [4, 8]: 246.50
- TER at 60 minutes [4, 8]: 250.00
- TER at 30 minutes [4, 8]: 245.50
- TER at 24 Hours [4, 8]: 328.33

Compound: CCCCCCCCCCCCC/C=C/[C@@H](O)[C@@H](N)COP(=O)(O)O [S1P, sphingosine-1 phosphate]
- F-actin staining pattern [2, 9]: showed actin cortical rings
- F-actin staining pattern [3, 9]: showed actin cortical rings
- persistence of increased ECIS ([5]; 1 μM of each compound, monitored for 90 hours): about 3 hours
- start of increase of ECIS compared to untreated cells, after treatment ([5]; S1P 1 μM alone): ≤ 15 min

Compound: CC(C)(O)C(=O)Nc1ccc([N+](=O)[O-])c(C(F)(F)F)c1 [Hydroxyflutamide, hydroxyflutamide]
- TER at 30 minutes [6, 10]: 177.18
- TER at 120 minutes [6, 10]: 201.20
- TER at 60 minutes [6, 10]: 186.19
- TER at 24 Hours [6, 10]: 297.30
- TER at 5 minutes [4, 10]: 190.44
- TER at 60 minutes [4, 10]: 215.97
- TER at 30 minutes [4, 10]: 207.46
- TER at 24 Hours [4, 10]: 267.27

Compound: C[C@]12CC[C@H]3[C@@H](CCC4=CC(=O)CC[C@@]43C)[C@@H]1CC[C@@H]2O [Testosterone, testosterone]
- TER at 5 minutes [4, 8]: 257.51
- TER at 60 minutes [4, 8]: 225.98
- TER at 30 minutes [4, 8]: 240.49
- TER at 24 Hours [4, 8]: 267.27

Compound: C[C@]12CC[C@@H]3c4ccc(O)cc4C[C@@H](CCCCCCCCC[S+]([O-])CCCC(F)(F)C(F)(F)F)[C@H]3[C@@H]1CC[C@@H]2O (some centres unmarked) [Fluvestrant, fluvestrant]
- TER at 30 minutes [6, 10]: 228.23
- TER at 120 minutes [6, 10]: 258.26
- TER at 60 minutes [6, 10]: 270.27
- TER at 24 Hours [6, 10]: 336.34
- TER at 5 minutes [4, 10]: 223.47
- TER at 60 minutes [4, 10]: 243.99
- TER at 30 minutes [4, 10]: 251.50
- TER at 24 Hours [4, 10]: 279.28

Compound: VEGF
- Ratio phosphorylated: total protein (VE-Cadherin; 15 minutes, ethanol control 0.215): 0.481
- Relative intensity - ProQ results (phosphorylated protein) (VE-Cadherin; [11]): 1.89
- Relative intensity - SYPRO results (total protein) (VE-Cadherin; [11]): 0.84
- fold increase of ratio phosphorylated: total protein (VE-Cadherin; versus ethanol control): (2.24 fold
- F-actin staining pattern [7]: strong stress fiber development

Compound: C[C@@H]1C[C@H]2[C@@H]3CCC4=CC(=O)C=C[C@]4(C)[C@@]3(F)[C@@H](O)C[C@]2(C)[C@@]1(O)C(=O)CO [Dexamethasone, dexamethasone]
- Percent Inhibition vs. Untreated Control (RhoA; passage 12 cells, 1.0 μM): 5.83%
- Mean OD (active RhoA) (RhoA; [12]): 0.428
- Mean OD (active RhoA) (RhoA; [13]): 0.826
- Percent Inhibition vs. Thrombin (RhoA; [13]): 33.48%

Compound: COc1cc2ncnc(Nc3ccc(Oc4ccccc4)cc3)c2cc1OC [Src-1 Inhibitor]
- Percent Inhibition vs. Untreated Control (RhoA; passage 12 cells, 1.0 μM): 23.21%
- Mean OD (active RhoA) (RhoA; [12]): 0.349
- Mean OD (active RhoA) (RhoA; [13]): 0.534
- Percent Inhibition vs. Thrombin (RhoA; [13]): 85.85%

Compound: O=c1cc(N2CCOCC2)oc2c(-c3ccccc3)cccc12 [LY294002]
- TER at 30 minutes [6, 14]: 297.30
- TER at 120 minutes [6, 14]: 276.28
- TER at 60 minutes [6, 14]: 354.35
- TER at 24 Hours [6, 14]: 345.35
- Percent Inhibition vs. Untreated Control (RhoA; passage 8 cells, 10.0 μM): 45.32%
- Mean OD (active RhoA) (RhoA; passage 8 cells, 10.0 μM, no thrombin, Untreated 0.102): 0.056
- Mean OD (active RhoA) (RhoA; [15]): 0.433
- Percent Inhibition vs. Thrombin (RhoA; [15]): 27.86%
- Percent Inhibition vs. Untreated Control (RhoA; passage 12 cells, 10.0 μM): 18.70%
- Mean OD (active RhoA) (RhoA; passage 12 cells, 10.0 μM, no thrombin, Untreated 0.455): 0.370
- Mean OD (active RhoA) (RhoA; [16]): 0.685
- Percent Inhibition vs. Thrombin (RhoA; [16]): 58.73%
- fluorescence of invaded cells (HUVECs): 5814±153 FU
